Source: the OligoGym collection
These antisense oligonucleotides have a phosphorothioate backbone; sugars and methylation of C are not fully specified.

Experiments:
Conditions in all cases: ASO
IL15 = molecular target: IL15
IKBKB = molecular target: IKBKB
RHOG = molecular target: RHOG
PRKAR2A = molecular target: PRKAR2A
Note: test concentration or dose not given here.

CTGAACTGAGAGTCAGAT
remaining target (mRNA or protein) (fraction of control) (IL15): 0.27

TGAGTCTCATAGGTGATT
remaining target (mRNA or protein) (fraction of control) (IKBKB): ≥ 1

ACTGGGTATATTAGCTGC
remaining target (mRNA or protein) (fraction of control) (IL15): 0.58

GGAGAGGCAGCTGTTGTT
remaining target (mRNA or protein) (fraction of control) (IKBKB): 0.43

TCACATTCTTTGCATCCA
remaining target (mRNA or protein) (fraction of control) (IL15): 0.31

GCAGCCTCCAAGCCAAGT
remaining target (mRNA or protein) (fraction of control) (RHOG): 0.58

GGTTCACTGTGCGCCCGT
remaining target (mRNA or protein) (fraction of control) (RHOG): 0.84

GAGGAGATTCATCATGGC
remaining target (mRNA or protein) (fraction of control) (IKBKB): 0.97

GCATCGTGGGTGCAGTTG
remaining target (mRNA or protein) (fraction of control) (RHOG): 0.53

CTGGGATGCCCGTGTCCT
remaining target (mRNA or protein) (fraction of control) (IKBKB): ≥ 1

ACTGGTTCAGGTACTTCC
remaining target (mRNA or protein) (fraction of control) (IKBKB): 0.88

ACACCTACCTTTTAATAA
remaining target (mRNA or protein) (fraction of control) (IL15): ≥ 1

TGTATTAACCTCTGTTCT
remaining target (mRNA or protein) (fraction of control) (IKBKB): ≥ 1

ACCACAATAGGCAGCAAC
remaining target (mRNA or protein) (fraction of control) (RHOG): 0.69

TACATTCACCCAGTTGGC
remaining target (mRNA or protein) (fraction of control) (IL15): 0.24

CTCGAAGCTCTGAATTGC
remaining target (mRNA or protein) (fraction of control) (IKBKB): 0.48

GCCAGGACACTGTTAAGA
remaining target (mRNA or protein) (fraction of control) (IKBKB): 0.43

TACTTCTCAAATGTGGTT
remaining target (mRNA or protein) (fraction of control) (IL15): ≥ 1

AAGAGGATGCAGGACCGC
remaining target (mRNA or protein) (fraction of control) (RHOG): 0.82

AATGTCACTCAGCAAGGT
remaining target (mRNA or protein) (fraction of control) (IKBKB): 0.25

AAAGCGTTAGTTGTGTAG
remaining target (mRNA or protein) (fraction of control) (RHOG): ≥ 1

TTAGTAGCATTTAGGTAA
remaining target (mRNA or protein) (fraction of control) (IL15): ≥ 1

GCCTCCTACAATACAATC
remaining target (mRNA or protein) (fraction of control) (IL15): ≥ 1

GGGCTTCCACTGACAGGA
remaining target (mRNA or protein) (fraction of control) (IKBKB): 0.18

AGCTGGCTATGGCAAGGG
remaining target (mRNA or protein) (fraction of control) (IL15): 0.35

TTGGCCTTGAGCTGCTGA
remaining target (mRNA or protein) (fraction of control) (IKBKB): 0.31

TTTAGTCCTGCTTCTAATCA
remaining target (mRNA or protein) (fraction of control) (PRKAR2A): 0.73

GCTCAGGTAAGCTGTTGG
remaining target (mRNA or protein) (fraction of control) (IKBKB): 0.45

ATGCATCACCTTTAATCT
remaining target (mRNA or protein) (fraction of control) (IL15): 0.65

CCCCACATGTCTGCGTTG
remaining target (mRNA or protein) (fraction of control) (IKBKB): 0.12

GCTTTAGATCCCGATGGA
remaining target (mRNA or protein) (fraction of control) (IKBKB): 0.46

GTCAGCCTTCTCATGATC
remaining target (mRNA or protein) (fraction of control) (IKBKB): ≥ 1

ATCCTAGGTCAATAATTT
remaining target (mRNA or protein) (fraction of control) (IKBKB): 0.97

TTAAGATGTCATCCAGGG
remaining target (mRNA or protein) (fraction of control) (IKBKB): ≥ 1

AGGCGGGTGAAGTACTCCAC
remaining target (mRNA or protein) (fraction of control) (PRKAR2A): 0.46

CCAATACCATGAAGGCAT
remaining target (mRNA or protein) (fraction of control) (IL15): 0.25

CTAGGGTAAAGTATGATC
remaining target (mRNA or protein) (fraction of control) (IL15): ≥ 1

AGGGCAGTGGTGGCACAC
remaining target (mRNA or protein) (fraction of control) (RHOG): 0.85

ATCTGGATGTGGCTCATGCC
remaining target (mRNA or protein) (fraction of control) (PRKAR2A): 0.82

CCAGCTTCAGTTAGAAAA
remaining target (mRNA or protein) (fraction of control) (IL15): ≥ 1

TGCACGGGCTGCCAGTTG
remaining target (mRNA or protein) (fraction of control) (IKBKB): 0.46

TGATGGCAATCTGCTCAC
remaining target (mRNA or protein) (fraction of control) (IKBKB): ≥ 1

GGATGTGGCTCATGCCGGCG
remaining target (mRNA or protein) (fraction of control) (PRKAR2A): 0.94

ACATTCACCTTCTCAGGA
remaining target (mRNA or protein) (fraction of control) (RHOG): 0.8

GTACATGACAGCCAGGAT
remaining target (mRNA or protein) (fraction of control) (IL15): 0.35

TTTCACTTCGTTCTCCCG
remaining target (mRNA or protein) (fraction of control) (IKBKB): 0.33

GTCCCACAGGTTCAGGTT
remaining target (mRNA or protein) (fraction of control) (RHOG): 0.69

GACCTGGTGCCCCTCCCG
remaining target (mRNA or protein) (fraction of control) (RHOG): 0.65

AAAAGGCATTCAGGGAAC
remaining target (mRNA or protein) (fraction of control) (RHOG): ≥ 1

CTGTTTTAGGAAGCCCTG
remaining target (mRNA or protein) (fraction of control) (IL15): 0.58

AGGGTGCAGAGGTTATGT
remaining target (mRNA or protein) (fraction of control) (IKBKB): 0.48

GTATTGAAGAAGAGCTGG
remaining target (mRNA or protein) (fraction of control) (IL15): ≥ 1

ACCTCTGGATGCCACTTG
remaining target (mRNA or protein) (fraction of control) (RHOG): 0.65

CAGGAACAGTTCTGTCATGT
remaining target (mRNA or protein) (fraction of control) (PRKAR2A): 0.65

GCTGTTCCTCATAGTGTGAG
remaining target (mRNA or protein) (fraction of control) (PRKAR2A): ≥ 1

CAATGACATGCTCATCAGCT
remaining target (mRNA or protein) (fraction of control) (PRKAR2A): 0.74

CATAGCAAGTACATGACA
remaining target (mRNA or protein) (fraction of control) (IL15): 0.46

CAATTCCAAGAGCAGCGA
remaining target (mRNA or protein) (fraction of control) (RHOG): 0.82

GGGTCCAACCTTGGCTTG
remaining target (mRNA or protein) (fraction of control) (RHOG): 0.42

TGCAGCAGCTCCGTGAGCCC
remaining target (mRNA or protein) (fraction of control) (PRKAR2A): 0.57

CCATCCACGATGCCTCCT
remaining target (mRNA or protein) (fraction of control) (IL15): 0.5

GAACACTTCCTTGACACC
remaining target (mRNA or protein) (fraction of control) (RHOG): 0.69

TTTAGAAGTAAACACAAG
remaining target (mRNA or protein) (fraction of control) (IL15): ≥ 1

CAGCTGTGCTCTTCTTCT
remaining target (mRNA or protein) (fraction of control) (IKBKB): 0.75

TTAACTTGCCGTCTGAAA
remaining target (mRNA or protein) (fraction of control) (IKBKB): 0.8

TACTAAAATGTCATAAGTTC
remaining target (mRNA or protein) (fraction of control) (PRKAR2A): ≥ 1

TTCAATAATAAATTAAAA
remaining target (mRNA or protein) (fraction of control) (IL15): ≥ 1

GGGCTCTTGAAGGATACA
remaining target (mRNA or protein) (fraction of control) (IKBKB): 0.39

CTCATGCCGGCGGCGGCCGA
remaining target (mRNA or protein) (fraction of control) (PRKAR2A): 0.96

CATAGGACGGCGGACTGG
remaining target (mRNA or protein) (fraction of control) (RHOG): 0.83
